# Results published in US20230092495A1, “SOLID FORMS OF TEZACAFTOR AND PROCESSES FOR THE PREPARATION THEREOF” (QUÍMICA SINTÉTICA, S.A., priority 2020, published 2023).
# Assays:
# [1] = Stability of amorphous tezacaftor, polymorphic stability by XRPD; type: physicochemical
# Description: (§1) Unless otherwise indicated, in the context of the present invention a range of values indicated for a certain parameter, for example the weight of a component in a mixture, includes the upper and the lower limits of the range, e.g. if the content in weight, or in volume, of a component A in a mixture is indicated as “X to Y”, the content of A can be X, Y or any of the intermediate values. By “polymorphically stable” it is meant that the crystalline form B and the amorphous form of the present invention, when stored (I) at 70° C. under reduced pressure for at least 1 hour (preferably for 5 hours, more preferably for 10 hours, even more preferably for 12 hours), (II) at 60° C. for at least 1 day (preferably for 5 days, more preferably for 10 days, even more preferably for 15 days), (III) at 40° C. and 75% RH for at least 1 day (preferably for 5 days, more preferably for 10 days, even more preferably for 15 days), and/or (IV) at 25-30° C. and 80% RH for at least 1 day (preferably for 5 days, more preferably for 10 days, even more preferably for 15 days), show no signs of transformation into a different crystalline tezacaftor (e.g. Form A) as evaluated by the absence of peaks in an X-ray powder diffractogram (XRPD).
# (§2) XRPD analyses were performed at 20-30° C. by means of a theta/theta vertical scan Bruker AXS D8 Advance high-performance diffractometer. The instrument was equipped with a Cu-Kα X-ray tube operating at 40 kV/40 mA and generating radiation having λ=1.5418 Å. The detector was a linear Lynxeye XE-T position sensitive set at 250 mm from the sample. Powder samples were deposited in the 20 mm×0.5 mm hollow of the sample holder, consisting of a quartz monocrystal zero background plate. A mild grinding of the sample in an agate mortar may be needed to obtain a suitable fine powder. Diffraction data were collected applying the following conditions: angular range 2-40° 2-theta, 0.02°/step scan and 1 second acquisition time. The instrument calibration was verified by means of a NIST SRM 1976b. Data acquisition was performed by means of Bruker Diffraction Measurement Center software. Data elaboration was performed by means of Crystal Impact Match!.
# The amorphous tezacaftor, prepared as described in Examples 3 to 5, was maintained at 70° C. under a reduced pressure for 12 hours.
# The amorphous tezacaftor, prepared as described in Examples 3 to 5, was maintained, in a closed vial, at 60° C. for 15 days.
# The amorphous tezacaftor, prepared as described in Examples 3 to 5, was maintained, in an open vial, at 40° C. and 75% RH for 15 days.
# The amorphous tezacaftor, prepared as described in Examples 3 to 5, was maintained, in an open vial, at 25-30° C. and 80% RH for 15 days.
# [2] = Stressed stability of crystalline tezacaftor form B, polymorphic stability by XRPD; type: physicochemical; conditions: 4 weeks
# Description: as §1
# as §2, with “Data acquisition was performed by means of Bruker Diffraction Measurement Center software. Data elaboration was performed by means of Crystal Impact Match!.” left out
Compound,"XRPD analysis after storage (polymorphic stability) ([1]; 25-30° C. and 80% RH, open vial, 15 days)","XRPD analysis after storage (polymorphic stability) ([1]; 40° C. and 75% RH, open vial, 15 days)","XRPD analysis after storage (polymorphic stability) ([1]; 60° C., closed vial, 15 days)","XRPD analysis after storage (polymorphic stability) ([1]; 70° C. under reduced pressure, 12 hours)","XRPD analysis after storage (polymorphic stability) ([2]; 20-25° C., 80% relative humidity, open vial)","XRPD analysis after storage (polymorphic stability) ([2]; 40° C. and 75% RH, open vial)","XRPD analysis after storage (polymorphic stability) ([2]; 60° C., closed vial)"
"CC(C)(CO)c1cc2cc(NC(=O)C3(c4ccc5c(c4)OC(F)(F)O5)CC3)c(F)cc2n1C[C@@H](O)CO [amorphous tezacaftor, (R)-1-(2,2-difluorobenzo[d][1,3]dioxol-5-yl)-N-(1-(2,3-dihydroxypropyl)-6-fluoro-2-(1-hydroxy-2-methylpropan-2-yl)-1H-indol-5-yl)cyclopropane-1-carboxamide]",XRPD spectrum corresponding to the one obtained in example 3,XRPD spectrum corresponding to the one obtained in example 3,XRPD spectrum corresponding to the one obtained in example 3,XRPD spectrum corresponding to the one obtained in example 3,,,
"CC(C)(CO)c1cc2cc(NC(=O)C3(c4ccc5c(c4)OC(F)(F)O5)CC3)c(F)cc2n1C[C@@H](O)CO [crystalline tezacaftor, (R)-1-(2,2-difluorobenzo[d][1,3]dioxol-5-yl)-N-(1-(2,3-dihydroxypropyl)-6-fluoro-2-(1-hydroxy-2-methylpropan-2-yl)-1H-indol-5-yl)cyclopropane-1-carboxamide]",,,,,XRPD diffractogram corresponding to the one obtained in example 1,XRPD diffractogram corresponding to that obtained in example 1,XRPD diffractogram corresponded to that obtained from the sample of example 1
